One series has as its system human sperm motility. Put plainly: Computer-assisted sperm analysis (CASA) of human sperm motility. Format: cell-based. As to conditions: for IC50: Homo sapiens, Sperm. On the procedure:
In another embodiment, a computer-assisted sperm analysis (CASA) can be used as a live cell compound screen for determining the effect of compounds on human sperm motility. Additionally, to facilitate the IC50 evaluation of compounds using different ejaculates, reducing inter-assay variation due to differences in sperm quality in different semen samples, an index of relative motility inhibition (RMI) was developed.
This is calculated as: RMI=[% motility*VSL]; percentage of motile sperm (% motility) or the percentage of progressively motile sperm (% progressive motility, RPMI) multiplied by the straight-line velocity (VSL); the average velocity measured in a straight line from the beginning to the end of a track in μm/sec.
Normalized RMI can be calculated by dividing the RMI of each experimental condition by its respective DMSO control.
Computer-assisted sperm analysis (CASA) was used as a live cell compound screen for determining the effect of compounds on human sperm motility. Computer-assisted sperm analysis (CASA) was performed using the approach taught in Mitra et al., Biology of Reproduction, Vol. 82, p 491 (2010), to determine the parameters of the control versus compound-treated spermatozoa. The parameters measured are: average pathway velocity (VAP: the average velocity of the smoothed cell path in 1 m/sec), the straight-line velocity (VSL: the average velocity measured in a straight line from the beginning to the end of track in 1 m/sec), the curvilinear velocity (VCL: the average velocity measured over the actual point-to-point track of the cell in 1 m/sec), the lateral head amplitude (ALH: amplitude of lateral head displacement in 1 m), the beat cross-frequency (BCF: frequency of sperm head crossing the sperm average path in Hz), the straightness (STR: the average value of the ratio VSL/VAP in %), and the linearity (LIN: the average value of the ratio VSL/VCL in %). The sperm motility parameters are assessed in pre-warmed (37° C.) two- or four-chambered 20-mm Leja slides, loading 5 μL or 2 μL, respectively, of the samples in each chamber and immediately using CASA. This computerized measuring device included a phase-contrast microscope (Olympus CX41), a camera, a mini-therm stage warmer, an image digitizer, and a computer to store and analyze data. The software used for data analysis is the HTR Ceros 12.3 (Hamilton-Thorne Biosciences). A range of 13 to 20 fields are scanned from each chamber. Progressive cells had to have a minimum of 25 μm/sec VAP and 80% of STR.
To facilitate the IC50 evaluation of compounds using different ejaculates, reducing inter-assay variation due to differences in sperm quality in different semen samples, an index of relative motility inhibition (RMI) was developed. This is calculated as: RMI=[% motility*VSL]; percentage of motile sperm (% motility) or the percentage of progressively motile sperm (% progressive motility, RPMI) multiplied by the straight-line velocity (VSL); the average velocity measured in a straight line from the beginning to the end of a sperm track in μm/sec. Normalized RMI (RPMI) was calculated by dividing the RMI of each experimental condition by its respective DMSO control.
The analysis of sperm motility was carried out with computer-assisted sperm analysis (CASA) (Ceros version 12.3 software; Hamilton-Thorne), using the techniques taught in Mitra et al., Biology of Reproduction, Vol. 82, p 491 (2010).

Series [1] can be described thus: Aqueous solubility (nephelometric method). Format: physicochemical. As to conditions: at 100 μM. As for the experimental part:
Solutions of the test compound were prepared from DMSO stock solution at the specified test concentrations. The solutions were mixed thoroughly and aliquoted into a 384-well plate, incubated for 1 hour at 37° C., and the degree of light scattering in each solution was measured at 635 nm using a laser-based microplate nephelometer. The mean nephelometric reading at each concentration was calculated and compared to that of the blank solution and a positive control (a solution of latex at a minimum concentration sufficient to give a mean reading higher than that of blank solution, as determined by a calibration curve). The compound was judged to be soluble at a specific concentration if the mean reading was less than the reading of the positive control. In cases where the mean reading was greater than or equal to the positive control, the solution was reported as having a precipitate and a percent precipitation value was calculated using the following formula: % precipitation=(mean test compound−mean blank)/(mean positive control−mean blank)×100

A short description of series [2]: In vitro absorption, Caco-2 permeability and recovery. The series is classed as in vitro ADME. As to conditions: human, Caco-2; read-out: permeability to Caco-2 cells. As for the experimental part:
(§1) The in vitro absorption was measured using methods described in Hidalgo, I. J. et al. (1989), Gastroenterology, 96: 736-749.
(§2) The apparent permeability coefficient (Papp) of the test compound was calculated as follows:
(§3) [formula] where VR is the volume of the receiver chamber. CR, end is the concentration of the test compound in the receiver chamber at the end time point, Δt is the incubation time and A is the surface area of the cell monolayer. CD, mid is the calculated mid-point concentration of the test compound in the donor side, which is the mean value of the donor concentration at time 0 minute and the donor concentration at the end time point. CR, mid is the mid-point concentration of the test compound in the receiver side, which is one half of the receiver concentration at the end time point. Concentrations of the test compound were expressed as peak areas of the test compound.
(§4) The recovery of the test compound was calculated as follows: […]
(§5) where VD and VR are the volumes of the donor and receiver chambers, respectively. CD,end is the concentration of the test compound in the donor sample at the end time point. CR,end is the concentration of the test compound in the receiver sample at the end time point. CD0 is the concentration of the test compound in the donor sample at time zero. Concentrations of the test compound are expressed as peak areas of the test compound. […]

The subject of a further series is Caco-2 cells. The series is described as above. Format: in vitro ADME. As for the experimental part:
as §1, §2, §3, §4, §5

This note sets out measurements from patent publication US10472334B2, “Small molecules for inhibiting male fertility” (The University of North Carolina at Chapel Hill, priority 2014, dated 2019).

Read-outs that look alike come from different tables or passages of the source.

For the compound `CCOC(=O)CSc1nc(NNC(=O)OC)nc(Nc2ccc(NC(=O)OC)c(O)c2)n1` [TZ4_121, [4-(3-Hydroxy-4-methoxycarbonylamino-phenylamino)-6-(N′methoxycarbonyl-hydrazino)-1,3,5-triazin-2-ylsulfanyl]-acetic acid ethyl ester], the “change in progressive motility” value in the series on human sperm motility (FIG. 7, 12.5 μM) was “significant decrease in progressive motility”. Also, the IC50 in the series with human sperm motility (FIG. 10, RMI using % progressive motility, read-out: IC50 in terms of progressive motility) was ~4.3 µM; with human sperm motility (FIGS. 3 and 4, read-out: IC50, CASA, RMI (relative motility)), ~7.5 µM; in the series with human sperm motility (relative motility index using % progressive motility, read-out: CASA IC50 RPMI) it was 7.5 µM. Further, in the series with human sperm motility (concentration of around 20 μM, FIG. 5), the “time until infertility would likely result, time course of sperm motility” value was in the range of 3 to 5 min. The sperm killed with human sperm motility (within 3 minutes) is reported as > 70%. In addition, the solubility result in series [1] is recorded as “Good”. In series [2], the Papp stood at 0.2 ×10⁻⁶ cm/s. The “Recovery from the permeability assay” value with Caco-2 cells worked out at 93%.
